From patent publication US20180099931A1 (AbbVie S.à.r.l., priority 2016, published 2018)
Where two headings read alike, the source gives them in different places.

Molecular target: T1, F508delCFTR (Homo sapiens, UniProt P13569, DEL508-508)
T1 construct: expressed in transfected cells; host or cells: CFBE41o- human lung-derived epithelial cells (CFBE4lo-F508delCFTR-HRP), doxycycline-inducible
Test: Cell Surface Expression-Horse Radish Peroxidase (CSE-HRP) Assay;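 as to Maximum % activity (with co-corrector): co-corrector and positive control are both the same reference corrector at 2 µM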;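 as to Maximum % activity (without co-corrector): percent of the 2 µM on-plate positive control corrector response above DMSO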
Type: cell-based
Conditions: CSE-HRP; for Maximum % activity (with co-corrector): with co-corrector (2 μM); for Maximum % activity (with co-corrector) / Emax: maximum at any tested concentration, normalized to on-plate positive control; for Emax: without co-corrector, read-out: Maximum % activity (without co-corrector)
Description: Cell Surface Expression-Horse Radish Peroxidase (CSE-HRP) Assay;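 as to Maximum % activity (with co-corrector): co-corrector and positive control are both the same reference corrector at 2 µM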;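 as to Maximum % activity (without co-corrector): percent of the 2 µM on-plate positive control corrector response above DMSO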
The development was achieved by expressing the F508delCFTR mutation along with a horseradish peroxidase (HRP) in the fourth exofacial loop, and then measuring the HRP activity using luminescence readout from these cells, CFBE4lo-F508delCFTR-HRP, that were incubated overnight with the test corrector compounds, either without or with the co-corrector. […] The test compounds were then added either without or with a co-corrector at the required concentrations and further incubated for 18-24 hours at 33° C. The highest concentration tested was 20 μM with an 8-point concentration response curve using a 3-fold dilution in both the test compound without or with the co-corrector. Three replicate plates were run to determine one EC50. All plates contained negative controls (dimethyl sulfoxide, DMSO) and positive control (2 μM of 3-[(2R,4R)-4-({[1-(2,2-difluoro-1,3-benzodioxol-5-yl)cyclopropyl]carbonyl}amino)-7-methoxy-3,4-dihydro-2H-chromen-2-yl]benzoic acid) as well as on-plate concentration response of the positive control. […] The raw counts from the experiment were analyzed using Accelrys® Assay Explorer v3.3.
1−[3*SDPositive Control+3*SDNegative Control/Absolute(MeanPositive Control−MeanNegative Control)]
wherein “SD” is standard deviation.
The % activity measured at each of the 8 test concentrations of the test compound added either without or with a co-corrector (2 μM of 3-[(2R,4R)-4-({[1-(2,2-difluoro-1,3-benzodioxol-5-yl)cyclopropyl]carbonyl}amino)-7-methoxy-3,4-dihydro-2H-chromen-2-yl]benzoic acid) was normalized to the on-plate positive control using the following formulae:
% activity(Test compound without co-corrector)=[(test compound without co-corrector response−DMSO response)/(positive control response−DMSO response)]*100
% activity(Test compound with co-corrector)=[(test compound with co-corrector response−DMSO response)/(positive control response−DMSO response)]*100
The maximum % activity achieved for the test compound either without or with a co-corrector at any tested concentration is presented in Table 4 along with the respective EC50's calculated using the following general sigmoidal curve with variable Hill slope equation (described as Model 42 in the Accelrys® Assay Explorer v3.3 software):
General sigmoidal curve with concentration, response, top, bottom, EC50 and Hill slope. This model describes a sigmoidal curve with an adjustable baseline, a. The equation can be used to fit curves where response is either increasing or decreasing with respect to the independent variable, “x”.
“x” is a concentration of drug under test. “y” is the response. “a” is the maximum response, and “d” is the minimum response “c” is the inflection point (EC50) for the curve. That is, “y” is halfway between the lower and upper asymptotes when x=c. “b” is the slope-factor or Hill coefficient. The sign of b is positive when the response increases with increasing dose and is negative when the response decreases with increasing dose (inhibition).

[1] = test compound without co-corrector, read-out: EC50 (without co-corrector)
[2] = with co-corrector (2 μM of 3-[(2R,4R)-4-({[1-(2,2-difluoro-1,3-benzodioxol-5-yl)cyclopropyl]carbonyl}amino)-7-methoxy-3,4-dihydro-2H-chromen-2-yl]benzoic acid), read-out: EC50 (with co-corrector)

T1 sequence (P13569 with tags, fused parts or gaps DEL508-508): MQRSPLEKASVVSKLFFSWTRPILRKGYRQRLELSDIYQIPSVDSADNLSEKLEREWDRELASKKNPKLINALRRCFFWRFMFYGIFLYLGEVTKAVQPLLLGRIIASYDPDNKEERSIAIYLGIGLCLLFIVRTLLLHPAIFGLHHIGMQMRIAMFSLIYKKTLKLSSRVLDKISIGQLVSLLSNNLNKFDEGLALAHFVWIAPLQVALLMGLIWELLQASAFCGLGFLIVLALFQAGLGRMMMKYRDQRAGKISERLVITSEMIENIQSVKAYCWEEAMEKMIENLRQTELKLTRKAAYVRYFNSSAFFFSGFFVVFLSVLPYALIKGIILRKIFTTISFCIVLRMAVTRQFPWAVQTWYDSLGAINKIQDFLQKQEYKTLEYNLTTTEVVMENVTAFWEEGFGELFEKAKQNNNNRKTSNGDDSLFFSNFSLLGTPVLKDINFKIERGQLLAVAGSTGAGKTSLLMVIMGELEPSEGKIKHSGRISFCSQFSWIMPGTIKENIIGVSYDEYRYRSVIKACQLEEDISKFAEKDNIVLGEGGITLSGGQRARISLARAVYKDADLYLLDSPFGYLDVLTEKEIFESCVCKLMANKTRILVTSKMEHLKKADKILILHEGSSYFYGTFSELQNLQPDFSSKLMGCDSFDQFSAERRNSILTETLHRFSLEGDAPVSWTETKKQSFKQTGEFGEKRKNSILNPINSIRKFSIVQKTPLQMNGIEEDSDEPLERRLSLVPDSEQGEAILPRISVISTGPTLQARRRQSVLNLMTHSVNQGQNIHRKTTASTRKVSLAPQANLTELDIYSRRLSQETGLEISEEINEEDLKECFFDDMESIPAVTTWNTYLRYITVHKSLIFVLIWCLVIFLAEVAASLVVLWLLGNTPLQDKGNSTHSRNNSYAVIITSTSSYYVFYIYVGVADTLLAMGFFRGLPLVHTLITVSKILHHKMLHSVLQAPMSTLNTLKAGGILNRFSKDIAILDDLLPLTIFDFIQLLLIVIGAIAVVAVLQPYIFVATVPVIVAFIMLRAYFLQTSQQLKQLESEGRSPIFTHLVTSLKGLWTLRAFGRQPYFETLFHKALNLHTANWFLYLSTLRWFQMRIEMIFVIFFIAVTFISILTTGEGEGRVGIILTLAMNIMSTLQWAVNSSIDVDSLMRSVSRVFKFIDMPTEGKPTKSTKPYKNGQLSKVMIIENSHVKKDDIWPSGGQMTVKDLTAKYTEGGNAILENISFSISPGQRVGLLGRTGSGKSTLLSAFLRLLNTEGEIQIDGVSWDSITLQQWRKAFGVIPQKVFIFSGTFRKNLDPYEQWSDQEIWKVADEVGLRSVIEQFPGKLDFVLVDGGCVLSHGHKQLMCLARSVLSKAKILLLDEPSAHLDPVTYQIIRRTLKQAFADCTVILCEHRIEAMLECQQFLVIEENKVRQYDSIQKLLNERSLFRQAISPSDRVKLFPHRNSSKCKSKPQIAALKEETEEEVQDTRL

| SMILES | EC50 [1] [nM] | EC50 [2] [nM] | Maximum % activity (with co-corrector) | Emax [%] |
| --- | --- | --- | --- | --- |
| COc1c(Cl)cccc1CN[C@@H]1[C@@H](C(C)(C)C)[C@H](C(=O)O)N(C(=O)C2CCCCC2)[C@@H]1c1ccccc1 (racemic) [II-7] | 1000 to 10000 | 1000 to 10000 | +++ (≥350) | < 100 |
| CC(C)(C)[C@@H]1[C@@H](NCc2cc(Cl)ccc2OC(F)F)[C@@H](c2ccccc2)N(C(=O)C2CCCCC2)[C@H]1C(=O)O (racemic) [II-8] | 1000 to 10000 | 1000 to 10000 | +++ (≥350) | < 100 |
| CCOc1ccc(Cl)cc1CN[C@@H]1[C@@H](C(C)(C)C)[C@H](C(=O)O)N(C(=O)C2CCCCC2)[C@@H]1c1ccccc1 (racemic) [II-9] | 1000 to 10000 | 1000 to 10000 | +++ (≥350) | < 100 |
| COc1cccc(Cl)c1CN[C@@H]1[C@@H](C(C)(C)C)[C@H](C(=O)O)N(C(=O)C2CCCCC2)[C@@H]1c1ccccc1 (racemic) [II-10] | 1000 to 10000 | 1000 to 10000 | +++ (≥350) | 100 to 200 |
| COc1ccc(Cl)cc1CN[C@@H]1[C@@H](C2CC2)[C@H](C(=O)O)N(C(=O)C2CCCCC2)[C@@H]1c1ccccc1 (racemic) [II-12] | 1000 to 10000 | 1000 to 10000 | +++ (≥350) | 100 to 200 |
| Cc1cc(C(F)(F)F)cc(N[C@@H]2[C@@H](C(C)(C)C)[C@H](C(=O)O)N(C(=O)OC(C)C)[C@@H]2c2ccccc2)n1 (racemic) [II-13] | 1000 to 10000 | 1000 to 10000 | +++ (≥350) | < 100 |
| CC(C)(C)[C@@H]1[C@@H](NCc2cc(C(F)(F)F)cnc2Cl)[C@@H](c2ccccc2)N(C(=O)C2CCCCC2)[C@H]1C(=O)O (racemic) [II-15] | < 1000 | < 1000 | +++ (≥350) | < 100 |
| COc1ccccc1[C@@H]1[C@H](NCc2cc(C(F)(F)F)cnc2Cl)[C@@H](C(C)(C)C)[C@H](C(=O)O)N1C(=O)C1CCCCC1 (racemic) [II-16] | 1000 to 10000 | 1000 to 10000 | +++ (≥350) | < 100 |
| COc1ccc(C(F)(F)F)cc1CN[C@@H]1[C@@H](C(C)(C)C)[C@H](C(=O)O)N(C(=O)C2CCCCC2)[C@@H]1c1ccccc1OC (racemic) [II-17] | 1000 to 10000 | 1000 to 10000 | +++ (≥350) | 100 to 200 |
| COc1cccc([C@@H]2[C@H](NCc3cc(Cl)ccc3OC)[C@@H](C(C)(C)C)[C@H](C(=O)O)N2C(=O)C2CCCCC2)n1 (racemic) [II-19] | 1000 to 10000 | 1000 to 10000 | +++ (≥350) | 100 to 200 |
| COc1ccc(C(F)(F)F)cc1CN[C@@H]1[C@@H](C(C)(C)C)[C@H](C(=O)O)N(C(=O)C2CCCCO2)[C@@H]1c1ccccc1N(C)C (mixture of isomers) [II-20] | 1000 to 10000 | 1000 to 10000 | +++ (≥350) | > 200 |
| COc1ccc(C(F)(F)F)cc1CN[C@@H]1[C@@H](C(C)(C)C)[C@H](C(=O)O)N(C(=O)C2CCCOC2)[C@@H]1c1ccccc1N(C)C (mixture of isomers) [II-21] | 1000 to 10000 | 1000 to 10000 | +++ (≥350) | > 200 |
| COc1cc(C(F)(F)F)ccc1CN[C@@H]1[C@@H](C(C)(C)C)[C@H](C(=O)O)N(C(=O)C2CCCOC2)[C@@H]1c1ccccc1N(C)C (mixture of isomers) [II-22] | 1000 to 10000 | 1000 to 10000 | +++ (≥350) | 100 to 200 |
| COc1cc(Cl)ccc1CN[C@@H]1[C@@H](C(C)(C)C)[C@H](C(=O)O)N(C(=O)C2CCCOC2)[C@@H]1c1ccccc1N(C)C (mixture of isomers) [II-23] | 1000 to 10000 | 1000 to 10000 | +++ (≥350) | 100 to 200 |
| COc1ccc(C(F)(F)F)cc1CN[C@@H]1[C@@H](C(C)(C)C)[C@H](C(=O)O)N(C(=O)C2CCOC(C)(C)C2)[C@@H]1c1ccccc1N(C)C (mixture of isomers) [II-24] | 1000 to 10000 | 1000 to 10000 | +++ (≥350) | > 200 |
| COc1ccc(Cl)cc1CN[C@@H]1[C@@H](C(C)(C)C)[C@H](C(=O)O)N(C(=O)C2CCOC(C)(C)C2)[C@@H]1c1ccccc1N(C)C (mixture of isomers) [II-25] | 1000 to 10000 | 1000 to 10000 | +++ (≥350) | > 200 |
| COc1cc(Cl)ccc1CN[C@@H]1[C@@H](C(C)(C)C)[C@H](C(=O)O)N(C(=O)C2CCOC(C)(C)C2)[C@@H]1c1ccccc1N(C)C (mixture of isomers) [II-26] | 1000 to 10000 | 1000 to 10000 | +++ (≥350) | > 200 |
| COC(=O)N1CCC[C@H](C(=O)N2[C@H](c3ccccc3)[C@H](Nc3cc(C(F)(F)F)cc(C)n3)[C@@H](C(C)(C)C)[C@@H]2C(=O)O)C1 (racemic) [II-27] | 1000 to 10000 | 1000 to 10000 | +++ (≥350) | > 200 |
| COc1ccc(Cl)cc1CN[C@@H]1[C@@H](C(C)(C)C)[C@H](C(=O)O)N(C(=O)OC(C)C)[C@@H]1c1cccnc1N(C)C (racemic) [II-28] | 1000 to 10000 | 1000 to 10000 | +++ (≥350) | > 200 |
| COc1cc(Cl)ccc1CN[C@@H]1[C@@H](C(C)(C)C)[C@H](C(=O)O)N(C(=O)OC(C)C)[C@@H]1c1cccnc1N(C)C (racemic) [II-29] | 1000 to 10000 | 1000 to 10000 | +++ (≥350) | > 200 |
| COc1ncc(F)cc1CN[C@@H]1[C@@H](C(C)(C)C)[C@H](C(=O)O)N(C(=O)C2CCCCC2)[C@@H]1c1ccccc1 (racemic) [II-30] | 1000 to 10000 | 1000 to 10000 | +++ (≥350) | 100 to 200 |
| CC(C)(C)[C@@H]1[C@@H](NCc2ccccc2C(F)(F)F)[C@@H](c2ccccc2)N(C(=O)C2CCCCC2)[C@H]1C(=O)O (racemic) [II-31] | 1000 to 10000 | 1000 to 10000 | +++ (≥350) | < 100 |
| COc1ccc(C(F)(F)F)cc1CN[C@@H]1[C@@H](C(C)(C)C)[C@H](C(=O)O)N(C(=O)Cc2ccccc2)[C@@H]1c1ccccc1 (racemic) [II-32] | 1000 to 10000 | 1000 to 10000 | +++ (≥350) | < 100 |
| COc1ccc(C(F)(F)F)cc1CN[C@H]1[C@H](C(C)(C)C)[C@@H](C(=O)O)N(C(=O)[C@H](OC)c2ccccc2)[C@H]1c1cccnc1N(C)C (racemic) [II-33] | 1000 to 10000 | 1000 to 10000 | +++ (≥350) | 100 to 200 |
| COc1ccc(C(F)(F)F)cc1CN[C@@H]1[C@@H](C(C)(C)C)[C@H](C(=O)O)N(C(=O)[C@@H]2CCCO[C@@H]2C)[C@@H]1c1ccccc1 (racemic) [II-34] | 1000 to 10000 | 1000 to 10000 | +++ (≥350) | > 200 |
| COc1ccc(C(F)(F)F)cc1CN[C@@H]1[C@@H](C(C)(C)C)[C@H](C(=O)O)N(C(=O)[C@H]2CCCO[C@H]2C)[C@@H]1c1ccccc1 (racemic) [II-35] | 1000 to 10000 | 1000 to 10000 | +++ (≥350) | > 200 |
| COc1ccc(C(F)(F)F)cc1CN[C@@H]1[C@@H](C(C)(C)C)[C@H](C(=O)O)N(C(=O)[C@@H]2CCC[C@@H](OC)C2)[C@@H]1c1ccccc1 (racemic) [II-36] | 1000 to 10000 | 1000 to 10000 | +++ (≥350) | > 200 |
